Measured values reported in PubChem BioAssay (NCI).
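Values below derive from 48-hour exposures of cells grown in 96-well plates, with endpoints linearly interpolated between the two concentrations bracketing the appropriate inhibition level. The concentration for 50% growth inhibition is given as GI50. TGI: total growth inhibition.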

How the values were obtained:
Experiment in all cases: NCI tumour cell line growth inhibition, 48 h
MDA-MB-231 breast = tested on: MDA-MB-231 breast
OVCAR-4 ovarian = tested on: OVCAR-4 ovarian
SK-OV-3 ovarian = tested on: SK-OV-3 ovarian
SK-MEL-28 melanoma = tested on: SK-MEL-28 melanoma
K-562 leukemia = tested on: K-562 leukemia
NCI/ADR-RES ovarian = tested on: NCI/ADR-RES ovarian
ACHN renal = tested on: ACHN renal
786-0 renal = tested on: 786-0 renal
MOLT-4 leukemia = tested on: MOLT-4 leukemia
DU-145 prostate = tested on: DU-145 prostate
UACC-62 melanoma = tested on: UACC-62 melanoma
LOX IMVI melanoma = tested on: LOX IMVI melanoma
SN12C renal = tested on: SN12C renal
UACC-257 melanoma = tested on: UACC-257 melanoma
SF-295 CNS = tested on: SF-295 CNS
CAKI-1 renal = tested on: CAKI-1 renal
SK-MEL-5 melanoma = tested on: SK-MEL-5 melanoma
OVCAR-5 ovarian = tested on: OVCAR-5 ovarian
SK-MEL-2 melanoma = tested on: SK-MEL-2 melanoma
MALME-3M melanoma = tested on: MALME-3M melanoma
NCI-H226 lung = tested on: NCI-H226 lung
UO-31 renal = tested on: UO-31 renal
SF-539 CNS = tested on: SF-539 CNS
A549 NSCLC = tested on: A549 NSCLC
HOP-92 NSCLC = tested on: HOP-92 NSCLC
RPMI-8226 leukemia = tested on: RPMI-8226 leukemia
SNB-75 CNS = tested on: SNB-75 CNS
HCT-116 colon = tested on: HCT-116 colon
NCI-H460 lung = tested on: NCI-H460 lung
PC-3 prostate = tested on: PC-3 prostate
CCRF-CEM leukemia = tested on: CCRF-CEM leukemia
SNB-19 CNS = tested on: SNB-19 CNS
OVCAR-8 ovarian = tested on: OVCAR-8 ovarian
NCI-H522 lung = tested on: NCI-H522 lung
SF-268 CNS = tested on: SF-268 CNS
KM12 colon = tested on: KM12 colon
U251 CNS = tested on: U251 CNS
TK-10 renal = tested on: TK-10 renal
HCC-2998 colon = tested on: HCC-2998 colon
HOP-62 NSCLC = tested on: HOP-62 NSCLC
OVCAR-3 ovarian = tested on: OVCAR-3 ovarian
A498 renal = tested on: A498 renal
MCF7 breast = tested on: MCF7 breast
M14 melanoma = tested on: M14 melanoma
HCT-15 colon = tested on: HCT-15 colon
HS 578T breast = tested on: HS 578T breast
HT29 colon = tested on: HT29 colon
NCI-H23 lung = tested on: NCI-H23 lung
EKVX NSCLC = tested on: EKVX NSCLC
RXF 393 renal = tested on: RXF 393 renal
IGROV1 ovarian = tested on: IGROV1 ovarian
SW-620 colon = tested on: SW-620 colon
MDA-MB-435 = tested on: MDA-MB-435
BT-549 breast = tested on: BT-549 breast
COLO 205 colon = tested on: COLO 205 colon

## O=C1N=C2c3c(sc4c3CCCC4)N=CN2C1N=Nc1ccc(Cl)cc1 (stereo not given)
MDA-MB-231 breast
  GI50: 20.1 µM
  TGI: > 100 µM
OVCAR-4 ovarian
  GI50: 51.9 µM
  TGI: > 100 µM
SK-OV-3 ovarian
  GI50: 47.2 µM
  TGI: 97.6 µM
SK-MEL-28 melanoma
  GI50: 35.6 µM
  TGI: > 100 µM
K-562 leukemia
  GI50: 5.13 µM
  TGI: 87.1 µM
NCI/ADR-RES ovarian
  GI50: 26.2 µM
  TGI: > 100 µM
ACHN renal
  GI50: 32.3 µM
  TGI: > 100 µM
786-0 renal
  GI50: 39.5 µM
  TGI: > 100 µM
MOLT-4 leukemia
  GI50: 13 µM
  TGI: 53 µM
DU-145 prostate
  GI50: 0.291 µM
  TGI: 25.3 µM
UACC-62 melanoma
  GI50: 16.7 µM
  TGI: 47.1 µM
LOX IMVI melanoma
  GI50: 29.8 µM
  TGI: > 100 µM
SN12C renal
  GI50: 28.8 µM
  TGI: > 100 µM
UACC-257 melanoma
  GI50: 34.1 µM
  TGI: > 100 µM
SF-295 CNS
  GI50: 25.4 µM
  TGI: 86.2 µM
CAKI-1 renal
  GI50: 30.9 µM
  TGI: > 100 µM
SK-MEL-5 melanoma
  GI50: 3.61 µM
  TGI: 15 µM
OVCAR-5 ovarian
  GI50: 22.6 µM
  TGI: > 100 µM
SK-MEL-2 melanoma
  GI50: > 100 µM
  TGI: > 100 µM
MALME-3M melanoma
  GI50: 23.9 µM
  TGI: 87.2 µM
NCI-H226 lung
  GI50: 22.8 µM
  TGI: > 100 µM
UO-31 renal
  GI50: 39.3 µM
  TGI: > 100 µM
SF-539 CNS
  GI50: 15.9 µM
  TGI: 46.8 µM
A549 NSCLC
  GI50: 42.2 µM
  TGI: > 100 µM
HOP-92 NSCLC
  GI50: 1.95 µM
  TGI: 20.2 µM
RPMI-8226 leukemia
  GI50: 3.2 µM
  TGI: 27.6 µM
SNB-75 CNS
  GI50: > 100 µM
  TGI: > 100 µM
HCT-116 colon
  GI50: 17.8 µM
  TGI: > 100 µM
NCI-H460 lung
  GI50: 27.8 µM
  TGI: 79.8 µM
PC-3 prostate
  GI50: 13 µM
  TGI: 75.3 µM
CCRF-CEM leukemia
  GI50: 13.8 µM
  TGI: 87.9 µM
SNB-19 CNS
  GI50: 25.2 µM
  TGI: > 100 µM
OVCAR-8 ovarian
  GI50: 31.3 µM
  TGI: > 100 µM
NCI-H522 lung
  GI50: 26.6 µM
  TGI: > 100 µM
SF-268 CNS
  GI50: 34.6 µM
  TGI: > 100 µM
KM12 colon
  GI50: 13.6 µM
  TGI: 44 µM
U251 CNS
  GI50: 20.2 µM
  TGI: > 100 µM
TK-10 renal
  GI50: 37.5 µM
  TGI: > 100 µM
HCC-2998 colon
  GI50: 24.4 µM
  TGI: 91.2 µM
HOP-62 NSCLC
  GI50: 41.1 µM
  TGI: > 100 µM
OVCAR-3 ovarian
  GI50: 21.9 µM
  TGI: > 100 µM
A498 renal
  GI50: 21.3 µM
  TGI: 47.4 µM
MCF7 breast
  GI50: 20 µM
  TGI: 66.4 µM
M14 melanoma
  GI50: 24.7 µM
  TGI: > 100 µM
HCT-15 colon
  GI50: 37.2 µM
  TGI: > 100 µM
HS 578T breast
  GI50: 29.8 µM
  TGI: > 100 µM
HT29 colon
  GI50: 11.7 µM
  TGI: 39.8 µM
NCI-H23 lung
  GI50: 12.3 µM
  TGI: 63.9 µM
EKVX NSCLC
  GI50: 7.79 µM
  TGI: 39.1 µM
RXF 393 renal
  GI50: 36.6 µM
  TGI: > 100 µM
IGROV1 ovarian
  GI50: 49.6 µM
  TGI: > 100 µM
SW-620 colon
  GI50: 23.1 µM
  TGI: > 100 µM
MDA-MB-435
  GI50: 19.8 µM
  TGI: 58.1 µM
BT-549 breast
  GI50: 1.44 µM
  TGI: 18.1 µM
COLO 205 colon
  GI50: 10.7 µM
  TGI: 39.3 µM
